Legend:
Assay in all cases: area over the GR curve, 72 h; higher = more effect;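 further: Dye Drop or Deep Dye Drop imaging of viable cells in 384-well plates (Hoechst nuclei, LIVE/DEAD dye), nine half-log doses, GR normalized to DMSO controls and time-zero plates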
CAL851 = test system: CAL851
PDX1328 = test system: PDX1328
MDAMB330 = test system: MDAMB330
HCC38 = test system: HCC38
CAL51 = test system: CAL51
SUM149 = test system: SUM149
BT20 = test system: BT20
BT549 = test system: BT549
CAMA1 = test system: CAMA1
HCC1954 = test system: HCC1954

## CN(C)C/C=C/C(=O)Nc1ccc(O[C@@H]2CCC[C@@H](Nc3ncc(Cl)c(-c4c[nH]c5ccccc45)n3)C2)cc1 [BSJ-01-175] (max 10 µM)
CAL851
  area over the GR curve: 0.822 GR
PDX1328
  area over the GR curve: 0.898 GR
MDAMB330
  area over the GR curve: 1.22 GR
HCC38
  area over the GR curve: 0.603 GR
CAL51
  area over the GR curve: 0.434 GR
SUM149
  area over the GR curve: 0.747 GR
BT20
  area over the GR curve: 0.812 GR
BT549
  area over the GR curve: 0.433 GR
CAMA1
  area over the GR curve: 0.68 GR
HCC1954
  area over the GR curve: 0.66 GR

## CC(=O)c1c(C)c2cnc(Nc3ccc(N4CCN(CCOCCOCCOCCNC(=O)COc5cccc6c5C(=O)N(C5CCC(=O)NC5=O)C6=O)CC4)cn3)nc2n(C2CCCC2)c1=O (configuration not stated) [BSJ-03-123] (max 10 µM)
CAL851
  area over the GR curve: 0.405 GR
PDX1328
  area over the GR curve: 0.31 GR
MDAMB330
  area over the GR curve: 0.443 GR
HCC38
  area over the GR curve: 0.566 GR
CAL51
  area over the GR curve: 0.187 GR
SUM149
  area over the GR curve: 0.293 GR
BT20
  area over the GR curve: 0.423 GR
BT549
  area over the GR curve: 0.116 GR
CAMA1
  area over the GR curve: 0.658 GR
HCC1954
  area over the GR curve: 0.33 GR

## CC(C)Nc1cc(-c2c[nH]c(C(=O)N[C@H](CO)c3cccc(Cl)c3)c2)c(Cl)cn1 [BVD523] (max 10 µM)
CAL851
  area over the GR curve: 0.2 GR
PDX1328
  area over the GR curve: 0.102 GR
MDAMB330
  area over the GR curve: 0.133 GR
HCC38
  area over the GR curve: 0.237 GR
CAL51
  area over the GR curve: 0.0561 GR
SUM149
  area over the GR curve: 0.233 GR
BT20
  area over the GR curve: 0.132 GR
BT549
  area over the GR curve: 0.109 GR
CAMA1
  area over the GR curve: 0.241 GR
HCC1954
  area over the GR curve: 0.242 GR

## Cc1c(N)nc([C@H](CC(N)=O)NC[C@H](N)C(N)=O)nc1C(=O)N[C@H](C(=O)N[C@H](C)[C@@H](O)[C@H](C)C(=O)N[C@H](C(=O)NCCc1nc(-c2nc(C(=O)NCCC[S+](C)C)cs2)cs1)[C@@H](C)O)[C@@H](OC1OC(CO)C(O)C(O)C1OC1OC(CO)C(O)C(OC(N)=O)C1O)c1cnc[nH]1 (some centres not stated) [Bleomycin] (max 10 µM)
CAL851; main component drawn
  area over the GR curve: 0.385 GR
PDX1328; main component drawn
  area over the GR curve: 0.199 GR
HCC38; main component drawn
  area over the GR curve: 0.485 GR
CAL51; main component drawn
  area over the GR curve: 0.485 GR
SUM149; main component drawn
  area over the GR curve: 0.683 GR
BT20; main component drawn
  area over the GR curve: 0.376 GR
BT549; main component drawn
  area over the GR curve: 0.467 GR
CAMA1; main component drawn
  area over the GR curve: 0.274 GR
HCC1954; main component drawn
  area over the GR curve: 0.617 GR

## Nc1cc(C(F)(F)F)c(-c2cc(N3CCOCC3)nc(N3CCOCC3)n2)cn1 [Buparlisib/NVP-BKM120] (max 10 µM)
CAL851
  area over the GR curve: 0.442 GR
PDX1328
  area over the GR curve: 0.395 GR
MDAMB330
  area over the GR curve: 0.442 GR
HCC38
  area over the GR curve: 0.254 GR
CAL51
  area over the GR curve: 0.328 GR
SUM149
  area over the GR curve: 0.248 GR
BT20
  area over the GR curve: 0.359 GR
BT549
  area over the GR curve: 0.248 GR
CAMA1
  area over the GR curve: 0.353 GR
HCC1954
  area over the GR curve: 0.39 GR

## COc1cc2nccc(Oc3ccc(NC(=O)C4(C(=O)Nc5ccc(F)cc5)CC4)cc3)c2cc1OC [Cabozantinib] (max 10 µM)
CAL851
  area over the GR curve: 0.123 GR
PDX1328
  area over the GR curve: 0.0918 GR
MDAMB330
  area over the GR curve: 0 GR
HCC38
  area over the GR curve: 0.0283 GR
CAL51
  area over the GR curve: 0.0598 GR
SUM149
  area over the GR curve: 0.0344 GR
BT20
  area over the GR curve: 0.0446 GR
BT549
  area over the GR curve: 0.0035 GR
CAMA1
  area over the GR curve: 0.0239 GR
HCC1954
  area over the GR curve: -0.0867 GR

## COc1cc2c(Oc3ccc4[nH]c(C)cc4c3F)ncnc2cc1OCCCN1CCCC1 [Cediranib/AZD2171] (max 10 µM)
CAL851
  area over the GR curve: 0.179 GR
PDX1328
  area over the GR curve: 0.162 GR
MDAMB330
  area over the GR curve: 0.105 GR
HCC38
  area over the GR curve: 0.202 GR
CAL51
  area over the GR curve: 0.171 GR
SUM149
  area over the GR curve: 0.0456 GR
BT20
  area over the GR curve: 0.0199 GR
BT549
  area over the GR curve: 0.15 GR
CAMA1
  area over the GR curve: 0.109 GR
HCC1954
  area over the GR curve: 0.0591 GR

## Cc1cc(Nc2ncc(Cl)c(Nc3ccccc3S(=O)(=O)C(C)C)n2)c(OC(C)C)cc1C1CCNCC1 [Ceritinib/LDK378] (max 10 µM)
CAL851
  area over the GR curve: 0.372 GR
PDX1328
  area over the GR curve: 0.416 GR
MDAMB330
  area over the GR curve: 0.187 GR
HCC38
  area over the GR curve: 0.208 GR
CAL51
  area over the GR curve: 0.417 GR
SUM149
  area over the GR curve: 0.249 GR
BT20
  area over the GR curve: 0.255 GR
BT549
  area over the GR curve: 0.141 GR
CAMA1
  area over the GR curve: 0.236 GR
HCC1954
  area over the GR curve: 0.124 GR

## N.N.[Cl][Pt][Cl] [Cisplatin] (max 10 µM)
CAL851
  area over the GR curve: 0.221 GR
PDX1328
  area over the GR curve: 0.287 GR
HCC38
  area over the GR curve: 0.257 GR
CAL51
  area over the GR curve: 0.214 GR
SUM149
  area over the GR curve: 0.355 GR
BT20
  area over the GR curve: 0.334 GR
BT549
  area over the GR curve: 0.283 GR
CAMA1
  area over the GR curve: 0.328 GR
HCC1954
  area over the GR curve: 0.275 GR

## Cc1nc(Nc2ncc(C(=O)Nc3c(C)cccc3Cl)s2)cc(N2CCN(CCO)CC2)n1 [Dasatinib] (max 10 µM)
CAL851
  area over the GR curve: 0.57 GR
PDX1328
  area over the GR curve: 0.819 GR
MDAMB330
  area over the GR curve: 0.183 GR
HCC38
  area over the GR curve: 0.145 GR
CAL51
  area over the GR curve: 0.516 GR
SUM149
  area over the GR curve: 0.52 GR
BT20
  area over the GR curve: 0.329 GR
BT549
  area over the GR curve: 0.237 GR
CAMA1
  area over the GR curve: 0.152 GR
HCC1954
  area over the GR curve: 0.189 GR

## COc1cccc2c1C(=O)c1c(O)c3c(c(O)c1C2=O)C[C@@](O)(C(=O)CO)C[C@@H]3O[C@H]1C[C@H](N)[C@H](O)[C@H](C)O1 [Doxorubicin] (max 3.162 µM)
CAL851
  area over the GR curve: 0.848 GR
PDX1328
  area over the GR curve: 0.637 GR
MDAMB330
  area over the GR curve: 0.716 GR
HCC38
  area over the GR curve: 0.78 GR
CAL51
  area over the GR curve: 0.795 GR
SUM149
  area over the GR curve: 0.754 GR
BT20
  area over the GR curve: 0.828 GR
BT549
  area over the GR curve: 0.76 GR
CAMA1
  area over the GR curve: 0.843 GR
HCC1954
  area over the GR curve: 0.73 GR

## CO[C@H]1C[C@@H]2CC[C@@H](C)[C@@](O)(O2)C(=O)C(=O)N2CCCC[C@H]2C(=O)O[C@H]([C@H](C)C[C@@H]2CC[C@@H](OCCO)[C@H](OC)C2)CC(=O)[C@H](C)/C=C(\C)[C@@H](O)[C@@H](OC)C(=O)[C@H](C)C[C@H](C)/C=C/C=C/C=C/1C [Everolimus] (max 10 µM)
CAL851
  area over the GR curve: 0.576 GR
PDX1328
  area over the GR curve: 0.642 GR
MDAMB330
  area over the GR curve: 1.28 GR
HCC38
  area over the GR curve: 0.486 GR
CAL51
  area over the GR curve: 0.432 GR
SUM149
  area over the GR curve: 0.201 GR
BT20
  area over the GR curve: 0.593 GR
BT549
  area over the GR curve: 0.439 GR
CAMA1
  area over the GR curve: 0.767 GR
HCC1954
  area over the GR curve: 0.653 GR

## CCC(=O)Nc1ccc(C(=O)Nc2ccc(Nc3ncc4c(n3)N(C)c3ccc(C)cc3C(=O)N4C)cc2)cc1 [FMF-03-145-1]
CAL851
  area over the GR curve: 0.626 GR
PDX1328
  area over the GR curve: 0.808 GR
MDAMB330
  area over the GR curve: 0.814 GR
HCC38
  area over the GR curve: 0.581 GR
CAL51
  area over the GR curve: 0.394 GR
SUM149
  area over the GR curve: 0.462 GR
BT20
  area over the GR curve: 1.2 GR
BT549
  area over the GR curve: 1.02 GR
CAMA1
  area over the GR curve: 0.393 GR
HCC1954
  area over the GR curve: 1.15 GR

## COc1cc(N2CCN(C)CC2)ccc1Nc1ncc2c(n1)N(C)c1ccccc1C(=O)N2CC(F)(F)F [FMF-03-146-1]
CAL851
  area over the GR curve: 0.0805 GR
PDX1328
  area over the GR curve: 0.071 GR
MDAMB330
  area over the GR curve: 0.0128 GR
HCC38
  area over the GR curve: 0.0485 GR
CAL51
  area over the GR curve: 0.0396 GR
SUM149
  area over the GR curve: -0.0043 GR
BT20
  area over the GR curve: 0.0278 GR
BT549
  area over the GR curve: 0.0127 GR
CAMA1
  area over the GR curve: -0.0223 GR
HCC1954
  area over the GR curve: 0.0296 GR

## CN1CC[C@H](c2c(O)cc(O)c3c(=O)cc(-c4ccccc4Cl)oc23)[C@H](O)C1 [Flavopiridol] (max 1 µM)
CAL851
  area over the GR curve: 0.3 GR
PDX1328
  area over the GR curve: 0.216 GR
MDAMB330
  area over the GR curve: 0.285 GR
HCC38
  area over the GR curve: 0.29 GR
CAL51
  area over the GR curve: 0.242 GR
SUM149
  area over the GR curve: 0.255 GR
BT20
  area over the GR curve: 0.334 GR
BT549
  area over the GR curve: 0.257 GR
CAMA1
  area over the GR curve: 0.253 GR
HCC1954
  area over the GR curve: 0.313 GR

## CC(C)n1nc(-c2ccc3oc(N)nc3c2)c2c(N)ncnc21 [INK128/MLN0128] (max 3.162 µM)
CAL851
  area over the GR curve: 0.626 GR
PDX1328
  area over the GR curve: 0.745 GR
MDAMB330
  area over the GR curve: 1.08 GR
HCC38
  area over the GR curve: 0.536 GR
CAL51
  area over the GR curve: 0.553 GR
SUM149
  area over the GR curve: 0.318 GR
BT20
  area over the GR curve: 0.568 GR
BT549
  area over the GR curve: 0.534 GR
CAMA1
  area over the GR curve: 0.64 GR
HCC1954
  area over the GR curve: 0.565 GR

## CC(C)NC[C@@H](C(=O)N1CCN(c2ncnc3c2[C@H](C)C[C@H]3O)CC1)c1ccc(Cl)cc1 [Ipatasertib/GDC0068] (max 10 µM)
CAL851
  area over the GR curve: 0.166 GR
PDX1328
  area over the GR curve: -0.0202 GR
MDAMB330
  area over the GR curve: 0.421 GR
HCC38
  area over the GR curve: 0.122 GR
CAL51
  area over the GR curve: 0.224 GR
SUM149
  area over the GR curve: 0.124 GR
BT20
  area over the GR curve: 0.311 GR
BT549
  area over the GR curve: 0.173 GR
CAMA1
  area over the GR curve: 0.412 GR
HCC1954
  area over the GR curve: 0.214 GR

## CC[C@@]1(O)C(=O)OCc2c1cc1n(c2=O)Cc2cc3c(CN(C)C)c(O)ccc3nc2-1 [Topotecan] (max 10 µM)
CAL851
  area over the GR curve: 0.843 GR
PDX1328
  area over the GR curve: 1.07 GR
HCC38
  area over the GR curve: 1.07 GR
CAL51
  area over the GR curve: 0.856 GR
SUM149
  area over the GR curve: 0.941 GR
BT20
  area over the GR curve: 1.03 GR
BT549
  area over the GR curve: 0.851 GR
CAMA1
  area over the GR curve: 1.05 GR
HCC1954
  area over the GR curve: 0.869 GR

Source: the supplement of paper PMC9663587
